Assay results from patent publication US8415469B2, “Compounds and methods for kinase modulation, and indications therefor” (Plexxikon Inc., priority 2005, dated 2013).

What was measured:
Assay type in all cases: biochemical
Flt4 = molecular target: T1, Flt4 (Homo sapiens, UniProt P35916); assay: AlphaScreen kinase assay, Flt4; conditions: read-out: IC50, activity toward kinase Flt4
T1 construct: purchased ProQinase GmbH (Freiburg, Germany)
Method in brief: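 Compounds in DMSO (20 mM stock) were diluted 1:3 across 8 points. Each kinase phosphorylated a biotin-labelled peptide. Signal generated when donor and acceptor beads came close via antibody binding of phosphorylated substrate.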

MAP2K1 = molecular target: T2, MAP2K1 (Homo sapiens, UniProt Q02750); assay: Z'-Lyte FRET kinase assay (Invitrogen), MAP2K1; conditions: read-out: IC50, activity toward kinase MAP2K1
T2 construct: purchased Invitrogen (assay run by Invitrogen)
T2 sequence (Q02750 whole entry): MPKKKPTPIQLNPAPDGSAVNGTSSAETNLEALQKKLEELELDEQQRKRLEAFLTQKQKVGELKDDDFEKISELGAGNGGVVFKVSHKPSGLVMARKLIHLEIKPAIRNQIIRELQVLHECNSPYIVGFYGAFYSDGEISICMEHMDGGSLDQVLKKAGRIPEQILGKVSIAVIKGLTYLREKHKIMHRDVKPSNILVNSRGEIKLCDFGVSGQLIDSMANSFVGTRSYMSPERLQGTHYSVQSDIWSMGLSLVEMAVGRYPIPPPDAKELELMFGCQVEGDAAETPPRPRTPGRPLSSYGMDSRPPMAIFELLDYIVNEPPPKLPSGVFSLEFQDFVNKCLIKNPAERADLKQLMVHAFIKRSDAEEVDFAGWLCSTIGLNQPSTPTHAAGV
Excerpt: For example, direct radiometric, indirect FRET or AlphaScreen assays may be used to assess the level of phosphorylation of a substrate in the presence of test compounds in order to determine the inhibitory affect of the compound on the kinase. […] For these assays, compounds of the invention were screened by Invitrogen using Z′-Lyte™ kinase assay.
Briefly, the Invitrogen kinase assay involves use of a specific peptide substrate optimized for each kinase, containing a fluorophore at each end that make up the FRET pair. The peptide sensitivity to proteolytic cleavage depends on phosphorylation of the peptide. Non-phosphorylated peptide is cleaved by a protease while peptide phosphorylated by the kinase is not cleaved. Cleavage of the peptide disrupts the FRET between the donor (coumarin) and acceptor (fluorescein) fluorophores, resulting in an increase in the ratio of donor emission to acceptor emission. The emission ratio of coumarin to fluorescein is used to assess the reaction progress. […] Thus, the assay involves a kinase reaction in the presence of varying concentrations of a given compound, a development reaction with site specific protease, and detection of the fluorescent emission ratio of coumarin and fluorscein. […] Reaction conditions for each kinase are determined to provide optimal reaction times, incubation temperature, kinase and ATP concentrations. Test samples are made up in 1× kinase buffer (50 mM HEPES pH 7.5, 50 mM MgCl2, 5 mM EGTA, 0.05% BRIJ-35) and compound at desired concentration prepared in DMSO such that the final DMSO is 1%. […] All kinase except for MAP2K1 were at 10 μM ATP in the kinase reaction, while MAP2K1 was at 100 μM. Samples are mixed and the kinase reaction is incubated 1 hour at room temperature, after which 5 μl of development solution is added and mixed. After incubation for another 1 hour at room temperature, 5 μl of stop reagent is added to each sample and mixed. The fluorescence signals are measured to determine the emission ratio.

PKC theta = molecular target: T3, PKC theta (Homo sapiens, UniProt Q04759); assay: Z'-Lyte FRET kinase assay (Invitrogen), PKC theta; conditions: read-out: IC50, activity toward kinase PKC theta
T3 construct: purchased Invitrogen (Carlsbad, Calif.), screening service
T3 sequence (Q04759 whole entry): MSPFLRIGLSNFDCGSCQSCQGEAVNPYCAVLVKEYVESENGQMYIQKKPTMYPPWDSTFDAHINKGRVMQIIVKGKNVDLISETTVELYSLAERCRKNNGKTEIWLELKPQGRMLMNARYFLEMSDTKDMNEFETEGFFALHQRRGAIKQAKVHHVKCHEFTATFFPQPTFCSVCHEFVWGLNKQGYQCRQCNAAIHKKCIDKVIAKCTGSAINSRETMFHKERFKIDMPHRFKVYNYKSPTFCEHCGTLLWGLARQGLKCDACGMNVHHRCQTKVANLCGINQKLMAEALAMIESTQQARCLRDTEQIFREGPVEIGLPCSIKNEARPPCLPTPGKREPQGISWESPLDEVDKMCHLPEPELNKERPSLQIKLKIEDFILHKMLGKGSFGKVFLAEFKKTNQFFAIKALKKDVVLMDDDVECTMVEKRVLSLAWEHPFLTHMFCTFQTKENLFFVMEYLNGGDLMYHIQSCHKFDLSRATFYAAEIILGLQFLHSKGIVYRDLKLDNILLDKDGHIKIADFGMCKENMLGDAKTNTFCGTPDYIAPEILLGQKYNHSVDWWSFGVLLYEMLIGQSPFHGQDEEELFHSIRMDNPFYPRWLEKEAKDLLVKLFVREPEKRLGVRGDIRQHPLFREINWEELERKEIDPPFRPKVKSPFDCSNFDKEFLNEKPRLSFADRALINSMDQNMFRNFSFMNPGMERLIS
Method in brief: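 10 μM ATP, 2 μM peptide, 1% DMSO final; HEPES pH 7.5 buffer with MgCl2/EGTA/BRIJ-35. Kinase rxn 1 h RT, protease development 1 h RT, stop, read donor/acceptor ratio. Compound titrated.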

Stk6 = molecular target: T4, Stk6 (Homo sapiens, UniProt O14965); assay: Z'-Lyte FRET kinase assay (Invitrogen), Stk6; conditions: read-out: IC50, activity toward kinase Stk6
T4 construct: purchased Invitrogen (Carlsbad, Calif.), screening service
T4 sequence (O14965 1-403): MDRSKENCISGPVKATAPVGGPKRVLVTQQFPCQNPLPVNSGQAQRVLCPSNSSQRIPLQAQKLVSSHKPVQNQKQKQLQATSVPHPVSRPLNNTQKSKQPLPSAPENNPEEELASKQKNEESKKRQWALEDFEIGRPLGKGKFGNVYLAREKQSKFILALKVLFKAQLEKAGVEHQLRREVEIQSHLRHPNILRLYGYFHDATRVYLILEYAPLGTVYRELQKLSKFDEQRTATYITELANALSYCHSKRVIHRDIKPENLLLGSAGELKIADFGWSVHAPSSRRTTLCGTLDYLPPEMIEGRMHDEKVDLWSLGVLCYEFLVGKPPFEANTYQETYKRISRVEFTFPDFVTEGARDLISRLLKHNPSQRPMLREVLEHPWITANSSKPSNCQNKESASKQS

Fak = molecular target: T5, Fak (Homo sapiens, UniProt Q05397); assay: AlphaScreen kinase assay, Fak; conditions: read-out: IC50, activity toward kinase Fak
T5 construct: P1358.pFastBacHtb FAK S411-Q686-X; His6 with pFastBacHTb leader (TEV site) (N); made in house; host or cells: Sf9 (baculovirus)
T5 sequence (Q05397 411-686): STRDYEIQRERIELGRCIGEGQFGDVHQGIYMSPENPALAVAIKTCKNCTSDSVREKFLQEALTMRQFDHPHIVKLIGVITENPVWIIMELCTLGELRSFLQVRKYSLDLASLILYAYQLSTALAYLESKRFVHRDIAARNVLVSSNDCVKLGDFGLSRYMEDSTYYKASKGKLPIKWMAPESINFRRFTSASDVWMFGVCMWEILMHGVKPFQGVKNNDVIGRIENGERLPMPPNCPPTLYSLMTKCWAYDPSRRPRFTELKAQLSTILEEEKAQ

T1 sequence (P35916 25-1363): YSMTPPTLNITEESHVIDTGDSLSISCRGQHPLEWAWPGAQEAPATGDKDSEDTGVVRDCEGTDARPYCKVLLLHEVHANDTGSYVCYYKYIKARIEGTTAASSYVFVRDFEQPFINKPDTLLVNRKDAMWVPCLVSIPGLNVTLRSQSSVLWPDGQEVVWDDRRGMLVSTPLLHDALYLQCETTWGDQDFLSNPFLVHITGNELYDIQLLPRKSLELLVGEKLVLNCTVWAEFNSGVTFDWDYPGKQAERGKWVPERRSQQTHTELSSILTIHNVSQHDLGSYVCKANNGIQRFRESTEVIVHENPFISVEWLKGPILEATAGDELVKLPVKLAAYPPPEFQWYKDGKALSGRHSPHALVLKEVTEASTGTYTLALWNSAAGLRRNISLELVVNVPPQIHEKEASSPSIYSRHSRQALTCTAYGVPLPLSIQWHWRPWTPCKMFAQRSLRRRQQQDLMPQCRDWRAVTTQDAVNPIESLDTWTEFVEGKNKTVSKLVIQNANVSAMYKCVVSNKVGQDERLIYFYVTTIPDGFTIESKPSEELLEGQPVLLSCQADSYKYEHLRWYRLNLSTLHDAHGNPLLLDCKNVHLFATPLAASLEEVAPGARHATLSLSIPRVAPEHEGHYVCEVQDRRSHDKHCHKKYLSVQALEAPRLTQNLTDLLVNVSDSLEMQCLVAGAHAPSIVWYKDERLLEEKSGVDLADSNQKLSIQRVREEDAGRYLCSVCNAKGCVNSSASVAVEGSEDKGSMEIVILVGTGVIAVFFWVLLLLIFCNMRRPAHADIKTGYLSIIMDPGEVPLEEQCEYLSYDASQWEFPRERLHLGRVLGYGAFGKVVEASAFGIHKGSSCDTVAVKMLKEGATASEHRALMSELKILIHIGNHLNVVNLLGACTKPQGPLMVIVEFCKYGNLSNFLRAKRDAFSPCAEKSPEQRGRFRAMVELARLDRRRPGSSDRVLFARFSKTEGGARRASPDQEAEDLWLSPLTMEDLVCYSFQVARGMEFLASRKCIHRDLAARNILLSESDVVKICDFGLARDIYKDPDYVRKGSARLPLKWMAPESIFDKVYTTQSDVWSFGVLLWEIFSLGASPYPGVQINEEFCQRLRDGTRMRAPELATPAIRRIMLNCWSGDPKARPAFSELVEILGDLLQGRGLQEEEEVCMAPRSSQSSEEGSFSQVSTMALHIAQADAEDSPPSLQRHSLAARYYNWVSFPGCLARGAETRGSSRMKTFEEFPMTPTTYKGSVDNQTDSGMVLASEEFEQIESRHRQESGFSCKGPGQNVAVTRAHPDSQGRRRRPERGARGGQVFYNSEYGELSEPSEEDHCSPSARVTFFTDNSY

| SMILES | IC50 (Flt4) [µM] | IC50 (MAP2K1) [µM] | IC50 (PKC theta) [µM] | IC50 (Stk6) [µM] | IC50 (Fak) [µM] |
| --- | --- | --- | --- | --- | --- |
| O=C(c1cccc(O)c1)c1c[nH]c2nccc(Cl)c12 [Compound P-0012] | ≤ 10 | ≤ 10 | ≤ 10 | – | – |
| CS(=O)(=O)Nc1cccc(-c2ccnc3[nH]cc(C(=O)c4cc(F)ccc4F)c23)c1 [Compound P-0060] | – | – | ≤ 10 | ≤ 10 | – |
| CCCS(=O)(=O)Nc1ccc(F)c(C(=O)c2c[nH]c3ncc(-c4cccnc4)cc23)c1F [Compound P-0088, Propane-1-sulfonic acid [2,4-difluoro-3-(5-pyridin-3-yl-1H-pyrrolo[2,3-b]pyridine-3-carbonyl)-phenyl]-amide] | – | – | – | ≤ 10 | ≤ 10 |
| Cc1ccccc1C(=O)c1c[nH]c2nccc(-c3cccc(NS(C)(=O)=O)c3)c12 [Compound P-0109] | – | – | ≤ 10 | – | – |
| Nc1cccc(-c2ccnc3[nH]cc(C(=O)c4ccccc4F)c23)c1 [Compound P-0022] | – | ≤ 10 | ≤ 10 | ≤ 10 | – |
| OCCOc1ccc(F)c(Cc2c[nH]c3ncc(-c4cccnc4)cc23)c1F [Compound P-1394, 2-[2,4-Difluoro-3-(5-pyridin-3-yl-1H-pyrrolo[2,3-b]pyridin-3-ylmethyl)-phenoxy]-ethanol] | – | – | – | ≤ 10 | ≤ 10 |
| CCCCNC(=O)Nc1ccc(F)c(C(=O)c2c[nH]c3ncc(-c4cccnc4)cc23)c1F [Compound P-1318, 1-Butyl-3-[2,4-difluoro-3-(5-pyridin-3-yl-1H-pyrrolo[2,3-b]pyridine-3-carbonyl)-phenyl]-urea] | – | – | – | – | ≤ 10 |
| Cc1ccc(F)cc1C(=O)c1c[nH]c2ncc(-c3cccc(N)c3)cc12 [Compound P-0040] | ≤ 10 | – | – | ≤ 10 | – |
| CC(=O)Nc1cccc(-c2ccnc3[nH]cc(C(=O)c4ccccc4F)c23)c1 [Compound P-0070] | – | – | ≤ 10 | ≤ 10 | – |
| CCCC(=O)Nc1ccc(F)c(Cc2c[nH]c3ncc(-c4cccnc4)cc23)c1F [Compound P-1280] | – | – | – | ≤ 10 | ≤ 10 |
| O=C(O)/C=C/c1cccc(-c2cnc3[nH]cc(C(=O)c4ccccc4F)c3c2)c1 [Compound P-0033] | – | – | – | ≤ 10 | – |
| Cc1c(O)cccc1C(=O)c1c[nH]c2ncc(-c3cccs3)cc12 [Compound P-0114, (3-Hydroxy-2-methyl-phenyl)-(5-thiophen-2-yl-1H-pyrrolo[2,3b]pyridin-3-yl)-methanone] | – | – | – | – | ≤ 10 |
| Cc1c(O)cccc1C(=O)c1c[nH]c2ncc(Br)cc12 [Compound P-0055, (5-Bromo-1H-pyrrolo[2,3-b]pyridin-3-yl)-(3-hydroxy-2-methyl-phenyl)-methanone] | – | – | ≤ 10 | – | ≤ 10 |
| Oc1cccc(Cc2c[nH]c3ncc(-c4cccs4)cc23)c1F [Compound P-0052, 2-Fluoro-3-(5-thiophen-2-yl-1H-pyrrolo[2,3-b]pyridin-3-ylmethyl)-phenol] | – | – | – | ≤ 10 | – |
| CCCS(=O)(=O)Nc1ccc(F)c(C(=O)c2c[nH]c3ncccc23)c1F [Compound P-0007, Propane-1-sulfonic acid [2,4-difluoro-3-(1H-pyrrolo[2,3-b]pyridine-3-carbonyl)-phenyl]-amide] | – | – | – | ≤ 10 | ≤ 10 |
| Cc1ccccc1C(=O)c1c[nH]c2nccc(-c3ccc(C(N)=O)cc3)c12 [Compound P-0017] | – | ≤ 10 | ≤ 10 | – | – |
| O=C(c1cc(O)ccc1F)c1c[nH]c2ncc(-c3ccccc3)cc12 [Compound P-0045] | – | – | – | ≤ 10 | ≤ 10 |
| COc1ccc(F)c(C(=O)c2c[nH]c3ncc(-c4cccnc4)cc23)c1 [Compound P-0090] | ≤ 10 | – | – | – | – |
| O=C(c1cc(O)ccc1F)c1c[nH]c2ncccc12 [Compound P-0005] | ≤ 10 | ≤ 10 | – | – | – |
| Nc1cccc(-c2ccnc3[nH]cc(C(=O)c4cc(F)ccc4F)c23)c1 [Compound P-0046] | – | ≤ 10 | ≤ 10 | ≤ 10 | – |
| Fc1cc(F)cc(-c2ccnc3[nH]cc(Sc4ccccn4)c23)c1 [Compound P-0106] | – | – | – | ≤ 10 | – |
| O=C(c1cc(O)ccc1F)c1c[nH]c2ncc(-c3cccs3)cc12 [Compound P-0032] | ≤ 10 | – | – | ≤ 10 | ≤ 10 |
| Oc1ccc(F)c(Cc2c[nH]c3ncc(-c4cccnc4)cc23)c1F [Compound P-0078, 2,4-difluoro-3-(5-pyridin-3-yl-1H-pyrrolo[2,3-b]pyridin-3-ylmethyl)-phenol] | – | – | – | – | ≤ 10 |

| SMILES | IC50 (Flt4) [µM] | IC50 (MAP2K1) [µM] | IC50 (PKC theta) [µM] | IC50 (Stk6) [µM] | IC50 (Fak) [µM] |
| --- | --- | --- | --- | --- | --- |
| Cc1ccc(S(=O)(=O)NCc2c[nH]c3ncccc23)cc1 [Compound P-0058] | – | ≤ 10 | – | ≤ 10 | – |
| Cc1ccccc1C(=O)c1c[nH]c2nccc(-c3cccc(N)c3)c12 [Compound P-0044] | – | – | ≤ 10 | ≤ 10 | – |
| Cn1cc(C(F)(F)F)c(-c2ccc(S(=O)(=O)NCc3c[nH]c4ncccc34)s2)n1 [Compound P-0041] | ≤ 10 | ≤ 10 | – | ≤ 10 | – |
| OC(c1c(F)ccc(F)c1F)c1c[nH]c2ncc(-c3cccnc3)cc12 (stereo not shown) [Compound P-0101] | – | – | – | ≤ 10 | – |
| O=C(c1cc(F)ccc1F)c1c[nH]c2nccc(-c3cccnc3)c12 [Compound P-0063] | – | – | ≤ 10 | ≤ 10 | – |
| O=C(O)/C=C/c1cccc(-c2cnc3[nH]cc(C(=O)c4cc(O)ccc4F)c3c2)c1 [Compound P-0010] | – | ≤ 10 | – | ≤ 10 | – |
| CS(=O)(=O)c1cccc(-c2cnc3[nH]cc(C(=O)c4cccc(O)c4F)c3c2)c1 [Compound P-0026, (2-Fluoro-3-hydroxy-phenyl)-[5-(3-methanesulfonylphenyl)1H-pyrrolo[2,3-b]pyridin-3-yl]-methanone] | – | – | ≤ 10 | – | ≤ 10 |
| CCCS(=O)(=O)Nc1ccc(F)c(C(=O)c2c[nH]c3ncc(OC)cc23)c1F [Compound P-0806, Propane-1-sulfonic acid [2,4-difluoro-3-(5-methoxy-1H-pyrrolo[2,3-b]pyridine-3-carbonyl)-phenyl]-amide] | – | ≤ 10 | – | ≤ 10 | ≤ 10 |
| O=C(c1ccccc1F)c1c[nH]c2nccc(-c3ccsc3)c12 [Compound P-0051] | – | ≤ 10 | ≤ 10 | ≤ 10 | – |
| CS(=O)(=O)c1cccc(-c2cnc3[nH]cc(C(=O)c4c(F)ccc(F)c4F)c3c2)c1 [Compound P-0102, [5-(3-Methanesulfonyl-phenyl)-1H-pyrrolo[2,3-b]pyridin-3-yl]-(2,3,6-trifluoro-phenyl)-methanone] | – | – | – | – | ≤ 10 |
| NC(=O)c1ccc(-c2ccnc3[nH]cc(C(=O)c4ccccc4F)c23)cc1 [Compound P-0014] | – | ≤ 10 | ≤ 10 | ≤ 10 | – |
| O=C(c1cccc(O)c1)c1c[nH]c2nccc(-c3cc(F)cc(F)c3)c12 [Compound P-0039] | ≤ 10 | – | ≤ 10 | – | – |
| COc1cc(OC)cc(C(=O)c2c[nH]c3ncc(-c4cccc(NS(C)(=O)=O)c4)cc23)c1 [Compound P-1426, N-{3-[3-(3,5-Dimethoxy-benzoyl)-1H-pyrrolo[2,3-b]pyridin-5-yl]-phenyl}-methanesulfonamide] | – | – | – | ≤ 10 | – |
| CN(C)S(=O)(=O)Nc1ccc(F)c(Cc2c[nH]c3ncc(-c4cccnc4)cc23)c1F [Compound P-0166] | – | – | – | – | ≤ 10 |
| Oc1cccc(Cc2c[nH]c3ncc(-c4ccsc4)cc23)c1 [Compound P-0056] | – | – | – | ≤ 10 | – |
| COc1cccc(C(=O)c2c[nH]c3ncc(-c4cccc(NC(C)=O)c4)cc23)c1F [Compound P-1336, N-{3-[3-(2-Fluoro-3-methoxy-benzoyl)-1H-pyrrolo[2,3-b]pyridin-5-yl]-phenyl}-acetamide] | – | – | – | ≤ 10 | ≤ 10 |
| Nc1ccnc2[nH]cc(C(=O)c3ccccc3)c12 [Compound P-0029] | ≤ 10 | ≤ 10 | – | ≤ 10 | – |
| O=C(c1cccc(O)c1)c1c[nH]c2ncccc12 [Compound P-0011] | ≤ 10 | ≤ 10 | ≤ 10 | ≤ 10 | – |
| COc1ccc(C(=O)c2c[nH]c3ncc(-c4cccc(/C=C/C(=O)O)c4)cc23)c(Cl)c1 [Compound P-0015] | – | ≤ 10 | – | ≤ 10 | – |
| Cc1c(NS(C)(=O)=O)cccc1C(=O)c1c[nH]c2ncc(-c3ccccc3)cc12 [Compound P-0082, N-[2-Methyl-3-(5-phenyl-1H-pyrrolo[2,3-b]pyridine-3-carbonyl)-phenyl]-methanesulfonamide] | – | – | – | ≤ 10 | – |
| NC(=O)c1cccc(-c2ccnc3[nH]cc(C(=O)c4cc(F)ccc4F)c23)c1 [Compound P-0049] | – | – | ≤ 10 | ≤ 10 | – |
| Oc1cc(O)cc(Cc2c[nH]c3ncc(-c4ccsc4)cc23)c1 [Compound P-0093] | ≤ 10 | – | – | ≤ 10 | – |
| O=C(c1ccc(O)cc1Cl)c1c[nH]c2ncccc12 [Compound P-0021] | – | – | ≤ 10 | – | – |
